# Data from ChEMBL document CHEMBL2203136, “Synthesis, characterization, biological evaluation and QSAR studies of 11-p-substituted phenyl-12-phenyl-11a,12-dihydro-11H-indeno[2,1-c][1,5]benzothiazepines as potential antimicrobial agents” (Eur J Med Chem, 2012).
# Activity calls are given as the source filed them. The rule behind the calls is not given here.
# Assays:
# Escherichia coli [1] = assay: Antibacterial activity against Escherichia coli MTCC 42 after 24 hrs by serial dilution method relative to 11,12-Diphenyl-11a,12-dihydro-11H-indeno[2,1-c][1,5]benzothiazepine; type: functional
# Pseudomonas aeruginosa [2] = assay: Antibacterial activity against Pseudomonas aeruginosa MTCC 7952 after 24 hrs by serial dilution method; type: functional; settings: for MIC: Pseudomonas aeruginosa, MTCC 7952, 24 h
# Staphylococcus aureus [3] = assay: Antibacterial activity against Staphylococcus aureus MTCC 7443 after 24 hrs by serial dilution method; type: functional; settings: for MIC: Staphylococcus aureus, MTCC 7443, 24 h
# Escherichia coli [4] = assay: Antibacterial activity against Escherichia coli MTCC 42 after 24 hrs by serial dilution method; type: functional; settings: for MIC: Escherichia coli, MTCC 42, 24 h
# Candida albicans [5] = assay: Antifungal activity against Candida albicans MTCC 183 after 72 hrs by serial dilution method relative to 11,12-Diphenyl-11a,12-dihydro-11H-indeno[2,1-c][1,5]benzothiazepine; type: functional
# Bacillus subtilis [6] = system: Bacillus subtilis
# Bacillus subtilis [7] = assay: Antibacterial activity against Bacillus subtilis MTCC 441 after 24 hrs by serial dilution method relative to 11,12-Diphenyl-11a,12-dihydro-11H-indeno[2,1-c][1,5]benzothiazepine; type: functional
# Aspergillus fumigatus [8] = assay: Antifungal activity against Aspergillus fumigatus MTCC 2550 after 72 hrs by serial dilution method relative to 11,12-Diphenyl-11a,12-dihydro-11H-indeno[2,1-c][1,5]benzothiazepine; type: functional
# Pseudomonas aeruginosa [9] = assay: Antibacterial activity against Pseudomonas aeruginosa MTCC 7952 after 24 hrs by serial dilution method relative to 11,12-Diphenyl-11a,12-dihydro-11H-indeno[2,1-c][1,5]benzothiazepine; type: functional
# Aspergillus fumigatus [10] = assay: Antifungal activity against Aspergillus fumigatus MTCC 2550 after 72 hrs by serial dilution method; type: functional; settings: for MIC: Aspergillus fumigatus, MTCC 2550, 72 h
# Bacillus subtilis [11] = assay: microbe, parasite or virus in culture; settings: MTCC 441, 24 h
# Candida albicans [12] = assay: Antifungal activity against Candida albicans MTCC 183 after 72 hrs by serial dilution method; type: functional; settings: for MIC: Candida albicans, MTCC 183, 72 h
# [13] = Octanol-water partition coefficient, log P of the compound; type: physicochemical
# Staphylococcus aureus [14] = assay: Antibacterial activity against Staphylococcus aureus MTCC 7443 after 24 hrs by serial dilution method relative to 11,12-Diphenyl-11a,12-dihydro-11H-indeno[2,1-c][1,5]benzothiazepine; type: functional
Compound,Activity (Escherichia coli [1]) [%],-logMIC (Pseudomonas aeruginosa [2]),MIC (Pseudomonas aeruginosa [2]) [µM],-logMIC (Escherichia coli [4]),MIC (Escherichia coli [4]) [µM],Activity (Candida albicans [5]) [%],-logMIC (Bacillus subtilis [6]),Activity (Bacillus subtilis [7]) [%],Activity (Aspergillus fumigatus [8]) [%],Activity (Pseudomonas aeruginosa [9]) [%],-logMIC (Aspergillus fumigatus [10]),MIC (Aspergillus fumigatus [10]) [µM],MIC (Bacillus subtilis [11]) [µM],-logMIC (Candida albicans [12]),MIC (Candida albicans [12]) [µM],logP [13],-logMIC (Staphylococcus aureus [3]),MIC (Staphylococcus aureus [3]) [µM],Activity (Staphylococcus aureus [14]) [%],other results
Cc1ccc2c(c1)SC(c1ccc(Cl)cc1)C1C(=N2)c2ccccc2C1c1ccccc1 (stereo not given),77.72,1.56,27.6,1.56,27.6,10.66,0.96,-78.67,55.36,55.41,1.26,55.3,111,1.26,55.3,7.95,–,–,–,Activity (Staphylococcus aureus [3]): inactive
c1ccc(C2Sc3ccccc3N=C3c4ccccc4C(c4ccccc4)C32)cc1 (stereo not given),–,1.21,61.9,0.91,124,–,1.21,–,–,–,0.91,124,61.9,1.21,61.9,6.96,1.21,61.9,–,–
COc1ccc2c(c1)SC(c1ccc(Cl)cc1)C1C(=N2)c2ccccc2C1c1ccccc1 (stereo not given),78.45,2.16,6.9,1.57,26.7,88.85,1.57,56.86,78.45,88.85,1.57,26.7,26.7,2.16,6.9,7.23,1.27,53.4,13.73,–
COc1ccc(C2Sc3cc(Cl)ccc3N=C3c4ccccc4C(c4ccccc4)C32)cc1 (stereo not given),78.45,2.18,6.6,1.57,26.7,78.51,1.27,13.73,78.45,89.33,1.57,26.7,53.4,1.88,13.3,7.23,1.88,13.3,78.51,–
Cc1ccc(C2Sc3cc(Cl)ccc3N=C3c4ccccc4C(c4ccccc4)C32)cc1 (stereo not given),88.86,1.56,27.6,1.86,13.8,55.41,1.56,55.41,77.72,55.41,1.56,27.6,27.6,1.56,27.6,7.95,2.16,6.9,88.85,–
Cc1ccc(C2Sc3ccccc3N=C3c4ccccc4C(c4ccccc4)C32)cc1 (stereo not given),3.38,–,–,0.92,120,–,1.22,3.39,–,–,–,–,59.8,–,–,7.43,0.92,120,-93.37,Activity (Pseudomonas aeruginosa [2]): inactive; Activity (Aspergillus fumigatus [10]): inactive; Activity (Candida albicans [12]): inactive
Cc1ccc2c(c1)SC(c1ccccc1)C1C(=N2)c2ccccc2C1c1ccccc1 (stereo not given),–,1.52,29.9,–,–,3.39,0.92,-93.37,51.73,51.69,1.22,59.8,120,1.22,59.8,7.43,0.92,120,-93.37,–
COc1ccc2c(c1)SC(c1ccc(C)cc1)C1C(=N2)c2ccccc2C1c1ccccc1 (stereo not given),77.48,2.16,6.9,1.55,27.9,54.92,0.95,-80.45,54.96,88.85,1.25,55.8,112,1.55,27.9,7.18,1.86,13.9,77.54,–
CN[C@@H]1[C@H](O[C@H]2[C@H](O[C@H]3[C@H](O)[C@@H](O)[C@H](N=C(N)N)[C@@H](O)[C@@H]3N=C(N)N)O[C@@H](C)[C@]2(O)C=O)O[C@@H](CO)[C@H](O)[C@H]1O [STREPTOMYCIN],–,–,2.6,–,5.3,–,–,–,–,–,–,–,10.7,–,–,–,–,10.7,–,–
CC1(C)S[C@@H]2[C@H](NC(=O)Cc3ccccc3)C(=O)N2[C@H]1C(=O)O [PENICILLIN G],–,–,18.7,–,37.4,–,–,–,–,–,–,–,4.6,–,–,–,–,4.6,–,–
COc1ccc(C2Sc3cc(C)ccc3N=C3c4ccccc4C(c4ccccc4)C32)cc1 (stereo not given),9.84,1.25,55.8,0.95,112,-80.45,1.25,9.85,9.84,9.85,0.95,112,55.8,0.95,112,7.18,1.55,27.9,54.92,–
OC(Cn1cncn1)(Cn1cncn1)c1ccc(F)cc1F [FLUCONAZOLE],–,–,–,–,–,–,–,–,–,–,–,10.1,–,–,10.1,–,–,–,–,–
COc1ccc(C2Sc3cc(OC)ccc3N=C3c4ccccc4C(c4ccccc4)C32)cc1 (stereo not given),78.28,0.97,108,1.57,26.9,78.35,1.27,12.92,89.18,-74.15,1.87,13.4,53.9,1.87,13.4,6.46,2.17,6.7,89.17,–
COc1ccc2c(c1)SC(c1ccccc1)C1C(=N2)c2ccccc2C1c1ccccc1 (stereo not given),76.75,1.24,57.6,1.54,28.8,-86.26,1.24,6.94,53.51,6.94,1.24,57.6,57.6,0.94,115,6.71,1.84,14.4,76.73,–
Cc1ccc(C2Sc3cc(C)ccc3N=C3c4ccccc4C(c4ccccc4)C32)cc1 (stereo not given),53.26,0.94,116,1.24,57.9,-87.1,1.54,53.31,6.53,-87.07,0.94,116,28.9,0.94,116,7.9,1.54,28.9,53.31,–
Clc1ccc(C2Sc3ccccc3N=C3c4ccccc4C(c4ccccc4)C32)cc1 (stereo not given),53.99,0.94,114,1.24,57,-84.32,2.15,88.52,53.99,-84.32,1.24,57,7.1,0.94,114,7.48,1.55,28.5,53.95,–
COc1ccc(C2Sc3ccccc3N=C3c4ccccc4C(c4ccccc4)C32)cc1 (stereo not given),6.94,–,–,0.94,115,-86.26,0.94,-86.26,53.51,–,1.24,57.6,115,0.94,115,7.95,–,–,–,Activity (Pseudomonas aeruginosa [2]): inactive; Activity (Staphylococcus aureus [3]): inactive
